How the values were obtained:
VCAM-1 = test: CAM ELISA: VCAM-1 expression on TNF-stimulated HUVECs; format: cell-based; settings: 1 μM compound, primary human umbilical vein endothelial cells, compound 24 hours, then TNF 5 ng/mL 6 hours; for inhibition at 1 µM: Homo sapiens, Endothelial cell
Experimental: (§1) Pooled primary human umbilical vein endothelial cells (HtVEC's) (Clonetics) between passages 3 and 7 were plated in 96-well plates (Costar), 100 μL/well, 5×10^4 cells/mL in Clonetics EBM/2% FBS/EGF/Bovine brain extract/gentamicin in the absence of hydrocortisone. The following day, compounds of the invention were added in 10 μL/well medium, and the plates were incubated at 37° C. 24 hours after compound addition, TNF (Gibco/BRL) in 10 μL/well medium was added to a final concentration of 5 ng/mL, and the cells were incubated an additional 6 hours at 37° C. Then media was removed, and the plates were washed once with D-PBS (Gibco/BRL) and treated with primary antibodies (Becton Dickinson, City), 100 μL/well in D-PBS/2% BSA (Sigma)/0.01% azide. Primary antibodies at an initial concentration of 1 mg/mL were used at the following dilutions: anti-ELAM-1, 1:2000, anti-ICAM-1, 1:2000 and anti-VACM-1, 1:3000. Plates were stored overnight at 4° C., washed 3 times with D-PBS, and treated with secondary antibody (Jackson Labs), 100 μL/well 1:8000 dilution HRP-conjugated donkey anti-mouse IgG(H+L) in D-PBS/2%BSA. Plates were incubated a minimum of 1 hour at room temperature, washed 3 times with D-PBS and treated with 100 μL of orhto-phenylene diamine-2 HCl reagent per well. Plates were developed approximately 15 minutes and neutralized with 100 μL/well 1N sulfuric acid. Absorbance was read at 490 nm.

E-Selectin = test: CAM ELISA: E-selectin expression on TNF-stimulated HUVECs; format: cell-based; settings: 1 μM compound, primary human umbilical vein endothelial cells, compound 24 hours, then TNF 5 ng/mL 6 hours; for inhibition at 1 µM: Homo sapiens, Endothelial cell
Experimental: as §1

ICAM-1 = test: CAM ELISA: ICAM-1 expression on TNF-stimulated HUVECs; format: cell-based; settings: 1 μM compound, primary human umbilical vein endothelial cells, compound 24 hours, then TNF 5 ng/mL 6 hours; for inhibition at 1 µM: Homo sapiens, Endothelial cell
Experimental: as §1

Molecule	CAM ELISA % Inhibition at 1 μM VCAM-1 (VCAM-1) [%]	CAM ELISA % Inhibition at 1 μM E-Selectin (E-Selectin) [%]	CAM ELISA % Inhibition at 1 μM ICAM-1 (ICAM-1) [%]	inhibition at 1 µM (VCAM-1) [%]	inhibition at 1 µM (E-Selectin) [%]	inhibition at 1 µM (ICAM-1) [%]	melting point [°C]
4-(4-Chlorobenzoyl)-N-methylthieno[2,3-c]pyridine-2-carboxamide [Example 237I]	54	71	77				
Cc1ccc(Sc2cncc3sc(C(N)=O)cc23)cc1 [Example 19, 4-[(4-methylphenyl)thio]thieno[2,3-c]pyridine-2-carboxamide]				41	79	67	
Cc1ccc(Sc2c(/C=C/C(N)=O)sc3cnccc23)cc1 [Example 32]	41	75	63				
Cc1occc1Sc1cncc2sc(C(N)=O)cc12 [Example 53, 4-[(2-methyl-3-fiuranyl)thio]thieno[2,3-c]piridine-2-carboxamide]	48	70	67				
Cc1ccc(Oc2cncc3sc(C(N)=O)cc23)cc1 [Example 60, 4-(4-methylphenoxy)thieno[2,3-c]pyridine-2-carboxamide]				42	74	71	
CCOC(=O)c1cccc(Oc2cncc3sc(C(N)=O)cc23)c1 [Example 79, ethyl 3-[[2-(aminocarbonyl)thieno[2,3-c]pyridin-4-yl]oxy]benzoate]				38	66	63	
O=C(Nc1cc2c(Oc3ccc(Cl)cc3)cncc2s1)OC1CCOC1 (stereo not drawn) [Example 89, N-(4-(4-chlorophenoxy)thieno[2,3-c]pyridin-2-yl)-O-(3-tetrahydrofuranyl)carbamate]	50	62	64				
NC(=O)c1cc2c(-c3ccc(C(F)(F)F)cc3)cncc2s1 [Example 95, 4-[4-(trifluoromethyl)phenyl]thieno[2,3-c]pyridine-2-carboxamide]				61	85	71	
C=C(c1ccccc1)c1cncc2sc(C(N)=O)cc12 [Example 102, 4-(1-phenylethenpl)thieno[2,3-c]pyridine-2-carboxamide]	53	78	68				
CN(C)C(=O)c1cc2c(Oc3ccc(Cl)cc3)cncc2s1 [Example 104, 4-(4-chlorophenoxy)-N,N-dimethylthieno[2,3-c]pyridine-2-carboxamide]				53	78	72	
CN1CCN(C(=O)c2cc3c(Oc4ccc(Cl)cc4)cncc3s2)CC1 [Example 110, 1-[[4-(4-chlorophenoxy)thieno[2,3-c]pyridin-2-yl]carbonyl]-4-methylpiperazine]				39	44	48	
O=C(NCCN1CCOCC1)c1cc2c(Oc3ccc(Cl)cc3)cncc2s1 [Example 119, 4-(4-chlorophenoxy)-N-[2-(4-morpholinyl)ethyl]thieno[2,3-c]pyridine-2-carboxamide]				36	59	61	
NS(=O)(=O)c1cc2c(Oc3ccc(Cl)cc3)cncc2s1 [Example 120, 4-(4-Chlorophenoxy)thieno[2,3-c]pyridine-2-sulfonamide]				49	72	72	
COc1ccccc1-c1cc2c(Oc3ccc(Cl)cc3)cncc2s1 [Example 124, 4-(4-chlorophenoxy)-2-(2-methoxyphenyl)thieno[2,3-c]pyridine]				26	18	29	
Cc1c(C(N)=O)sc2cncc(Oc3ccc(Cl)cc3)c12 [Example 125, 4-(4-Chlorolphenoxy)-3-methylthienol[2,3-c]pyridine-2-carboxamide]	44	72	69				
Cc1ccc(Sc2ccnc3cc(C(N)=O)sc23)cc1 [Example 135, 7-[(4-methylphenyl)thio]thieno[3,2-b]pyridine-2-carboxamide]				34	29	22	
O=C(O)CNC(=O)c1cc2c(Oc3ccc(Cl)cc3)cncc2s1 [Example 159]	13	30	45				
NC(=O)CNC(=O)c1cc2c(Oc3ccc(Br)cc3)cncc2s1 [Example 161, N-(2-Amino-2-oxoethyl)-4-(4-bromophenoxy)thieno[2,3-c]pyridine-2-carboxamide]				51	51	58	
NC(=O)c1cc2c(Oc3cccnc3)cncc2s1 [Example 170, 4-(3-Pyridinyloxy)thieno[2,3-c]pyridine-2-carboxamide]				53	66	67	
CNC(=O)c1cc2c(Oc3ccc(C(F)(F)F)cc3)cncc2s1 [Example 183, N-Methyl-4-[4-(trifluoromethyl)phenoxy]thieno[2,3-c]pyridine-2-carboxamide]				48	63	69	
NC(=O)c1cc2c(Oc3cccc(C(F)(F)F)c3)cncc2s1 [Example 184, 4-[3-(Trifluoromethyl)phenoxy]thieno[2,3-c]pyridine-2-carboxamide]				30	52	56	
N#Cc1ccc(Oc2cncc3sc(C(N)=O)cc23)cc1 [Example 187, 4-(4-Cyanophenoxy)thieno[2,3-c]pyridine-2-carboxamide]				54	78	72	
CNC(=O)c1cc2c(Oc3ccc(N4CCOCC4)cc3)cncc2s1 [Example 190C, N-Methyl-4-[4-(4-morpholinyl)phenoxy]thieno[2,3-c]pyridine-2-carboxamide]				37	70	65	
CNC(=O)c1cc2c(Oc3ccc(C(C)=O)cc3)cncc2s1 [Example 202, 4-(4-Acetylphenoxy)-N-methylthieno[2,3-c]pyridine-2-carboxamide]				49	80	68	
CNC(=O)c1cc2c(Oc3ccc(/C=C/C(=O)NCCN4CCOCC4)cc3)cncc2s1 [Example 210]	42	64	58				
NC(=O)c1cc2c(Oc3ccc(C(F)(F)F)cc3)cnc(Cl)c2s1 [Example 318, 7-Chloro-4-[4-(trifluoromethyl)phenoxy]thieno[2,3-c]pyridine-2-carboxamide]							175 to 176
CNC(=O)c1cc2c(Oc3ccc(C(F)(F)F)cc3)cnc(Cl)c2s1 [Example 319, 7-Chloro-N-methyl-4-[4-(trifluoromethyl)phenoxy]thieno[2,3-c]pyridine-2-carboxamide]							178 to 179
NC(=O)c1cc2c(Oc3ccc(Cl)cc3)c[nH]c(=O)c2s1 [Example 323, 4-(4-Chlorophenoxy)-7-oxo-6,7-dihydrothieno[2,3-c]pyridine-2-carboxamide]							> 250

Source: patent US6579882B2, “Cell adhesion-inhibiting antiinflammatory compounds” (Abbott Laboratories, priority 1998, dated 2003)
